# Reference: patent publication US20040038947A1, “Method of treating ischemia/reperfusion injury with nitroxyl donors” (The Gov. of the U.S. of America as represented by the Sec. …, priority 2002, published 2004)
# Columns and labels:
# Isolated rat hearts [1] = experiment: Pre-ischemic cardiac function of isolated perfused rat hearts (Table 1); settings: mean
# Experimental: (§1) Isolated heart perfusion. Each animal was anesthetized with 1 g/kg urethane i.p. 10 min after heparin (2,500 U, i.m.) treatment. The chest was opened, and the heart was rapidly excised, placed in ice-cold buffer solution and weighed. Isolated rat hearts were attached to the perfusion apparatus and retrogradely perfused with oxygenated buffer solution at 37° C. The hearts were instrumented as previously described in Rastaldo et al., “P-450 metabolite of arachidonic acid mediates bradykinin-induced negative inotropic effect,” Am. J. Physiol., 280:H2823-H2832 (2001), and Paolocci et al. “cGMP-independent inotropic effects of nitric oxide and peroxynitrite donors: potential role for nitrosylation,” Am. J. Physiol., 279: H1982-H1988 (2000). The flow was maintained constant (9±2 mL/min/g wet weight) to reach a typical coronary perfusion pressure of 85-90 mm Hg. A constant proportion of 10% of the flow rate was applied by means of one of two perfusion pumps (Terumo, Tokyo, Japan) using a 50 mL syringe connected to the aortic cannula. Drug applications (see Experimental Protocols) were performed by switching from the syringe containing buffer alone to the syringe of the other pump containing the drug dissolved in the vehicle at a concentration 10× to the desired final concentration in the heart. A small hole in the left ventricular wall allowed drainage of the thebesian flow, and a polyvinyl-chloride balloon was placed into the left ventricle and connected to an electromanometer for recording of left ventricular pressure (LVP). The hearts were electrically paced at 280-300 bpm and kept in a temperature-controlled chamber (37° C.). Coronary perfusion pressure (CPP) and coronary flow were monitored with a second electromanometer and an electromagnetic flow-probe, respectively, both placed along the perfusion line. Left ventricular pressure, coronary flow and coronary perfusion pressure were recorded using a TEAC R-71 recorder, digitized at 1000 Hz and analyzed off-line with DataQ-Instruments/CODAS software, which allowed quantification of the maximum rate of increase of LVP during systole (dP/dtmax).
# Hearts were perfused with Krebs-Henseleit solution gassed with 95% O2 and 5% CO2 of the following composition: 17.7 mM sodium bicarbonate, 127 mM NaCl, 5.1 mM KCl, 1.5 mM CaCl2, 1.26 mM MgCl2, 11 mM D-glucose, supplemented with 5 μg/mL lidocaine.
# (§2) Experimental Protocols. Hearts were allowed to stabilize for 30 min, and baseline parameters were recorded. Typically, coronary flow was adjusted within the first 10 min and kept constant from thereon. After 30 min stabilization, hearts were randomly assigned to one of the treatment groups reported below (n=12 in each group), and then subjected to 30 min global, no-flow ischemia, followed by 30 min of reperfusion (I/R) (see FIG. 1). Pacing of the hearts was stopped at the beginning of the ischemic period and restarted after the third minute of reperfusion.
# (§3) Hearts in the control group (Group 1) were perfused with buffer for an additional 29 min after stabilization. Group 2 hearts were exposed to AS (1 μM final concentration) for 19 min followed by a 10 min buffer wash-out period. Group 3 hearts were exposed to DEA/NO (0.5 μM final concentration) administered in the same manner as AS. The concentration of DEA/NO was only one half of that of AS since DEA/NO releases up to two moles of […] per mole of donor molecule. In Group 4, a train of three cycles of 3 min global ischemia followed by 5 min of reperfusion was applied after the stabilization phase, followed by a final 10 min buffer wash-out period (IPC protocol).
# (§4) Group 5 hearts were exposed to the vehicle (NaOH, final concentration 100 nM) used to dissolve both AS and DEA/NO. To test the influence of switching the myocardial redox state on AS-induced effects, in an additional group of hearts (Group 6) AS was co-infused with N-acetyl-L-cysteine (NAC, 4 mM final concentration). For comparison, hearts were also exposed to NAC alone (Group 7). […]
# anesthetized rabbits = settings: administered during ischemia and 5 minutes prior to reperfusion; cited from earlier work
# rat renal tissue = settings: administered during ischemia and 5 minutes before reperfusion; rat kidney; cited from earlier work
# Isolated rat hearts [2] = experiment: Myocardial injury: infarct area by nitro blue tetrazolium staining
# Experimental: as §2, §3, §4
# To corroborate the data relative to myocardial injury, determined by LDH release, infarct areas were also assessed in a blinded fashion. […] The weight of the necrotic and non-necrotic tissues was then determined and the necrotic mass expressed as a percentage of total left ventricular mass.
# Nitroxyl donation pH = assay type: physicochemical; settings: donates from this pH to about 10
# Description: “Nitroxyl donation pH” is the pH at which and above which a nitroxyl-donating compound donates nitroxyl.
# Further, compounds are easily tested for nitroxyl donation with routine experiments. Although it is impractical to directly measure whether nitroxyl is donated, several tests are accepted for determining whether a compound donates nitroxyl. For example, the compound of interest can be placed in solution, for example in water, in a sealed container. After sufficient time for disassociation has elapsed, such as from several minutes to several hours, the headspace gas is withdrawn and analyzed to determine its composition, such as by gas chromatography and/or mass spectroscopy. […] Nitroxyl donation also can be detected by exposing the target donor to metmyoglobin (Mb^3+). Nitroxyl reacts with Mb^3+ to form an Mb^2+-NO complex, which can be detected by changes in the ultraviolet/visible spectrum or by Electron Paramagnetic Resonance (EPR). […]
# Testing for nitroxyl donation in some cases is performed at a range of pHs to determine the nitroxyl donation pH of the nitroxyl-donating compound. […] After the lowest pH at which nitroxyl donation occurs in a first set of tests is found, additional tests can be performed with narrower ranges of pH around the first determined nitroxyl donation pH to obtain a more specific nitroxyl donation pH. […]
# Isolated rat hearts [3] = experiment: Myocardial injury: LDH release in coronary effluent during reperfusion; settings: pre-treatment; control 686±14 U/g wet wt; FIG. 4A
# Experimental: as §2
# as §3, with “In Group 4, a train of three cycles of 3 min global ischemia followed by 5 min of reperfusion was applied after the stabilization phase, followed by a final 10 min buffer wash-out period (IPC protocol).” left out
# Assessment of myocardial injury. […] LDH release was measured as previously described by Bergmeyer & Bernt, “Methods of Enzymatic Analysis,” Verlag Chemie (1974). Data are expressed as cumulative values for the entire reflow period.
# Isolated rat hearts [4] = experiment: Ventricular function (contracture, contractile recovery) of isolated rat hearts in 30 min global ischemia / 30 min reperfusion; settings: for Maximal increment of LVEDP during reperfusion: compared to control, vehicle, NAC and NAC+AS treated hearts (p<0.05), FIG. 2B
# Experimental: as §1, §2, §3
# Group 5 hearts were exposed to the vehicle (NaOH, final concentration 100 nM) used to dissolve both AS and DEA/NO. […]
# Isolated rat hearts [5] = experiment: Example 2: infarct size after ischemia/reperfusion, different set of isolated rat hearts; settings: same protocol as AS in Example 1, only one rat heart per intervention, FIG. 5
# Experimental: FIG. 5 is a graph showing infarct size following 30 min of global ischemia and 30 min reperfusion for interventions in a different set of isolated rat hearts for interventions with control; ischemic preconditioning (IP); IPA/NO; AS; and DEA/NO.
# To corroborate the data relative to myocardial injury, determined by LDH release, infarct areas were also assessed in a blinded fashion. At the end of the course (30 min reperfusion), each heart was rapidly removed from the perfusion apparatus, and the LV dissected into 2-3 mm circumferential slices. Following 15 min of incubation at 37° C. in 0.1% solution of nitro blue tetrazolium in phosphate buffer as described in Ma et al., “Opposite effects of nitric oxide and nitroxyl on postischemic myocardial injury,” Proc. Natl. Acad. Sci., 96:14617-14622 (1999), unstained necrotic tissue was separated from the stained viable tissue. The areas of viable and necrotic tissue were carefully separate by and independent observer (D. Mancardi, C. Penna, or R. Rastaldo) who was not aware of the origin of the hearts. The weight of the necrotic and non-necrotic tissues was then determined and the necrotic mass expressed as a percentage of total left ventricular mass.
# The same methods as employed in Example 1 were used to assess the ischemia/reperfusion injury reducing effects of the nitroxyl donor IPA/NO. […]
# isolated rat heart = experiment: Example 2: coronary perfusion pressure during reperfusion; settings: FIG. 6
# Experimental: FIG. 6 is a graph showing the coronary perfusion pressures for the IPA/NO intervention of FIG. 5 and an intervention in an isolated rat heart with a vehicle for the same protocol as was used with AS and vehicle in FIG. 1. IPA/NO is represented by diamonds; vehicle is represented by squares.
# Isolated heart perfusion. Each animal was anesthetized with 1 g/kg urethane i.p. 10 min after heparin (2,500 U, i.m.) treatment. The chest was opened, and the heart was rapidly excised, placed in ice-cold buffer solution and weighed. Isolated rat hearts were attached to the perfusion apparatus and retrogradely perfused with oxygenated buffer solution at 37° C. The hearts were instrumented as previously described in Rastaldo et al., “P-450 metabolite of arachidonic acid mediates bradykinin-induced negative inotropic effect,” Am. […] Coronary perfusion pressure (CPP) and coronary flow were monitored with a second electromanometer and an electromagnetic flow-probe, respectively, both placed along the perfusion line. Left ventricular pressure, coronary flow and coronary perfusion pressure were recorded using a TEAC R-71 recorder, digitized at 1000 Hz and analyzed off-line with DataQ-Instruments/CODAS software, which allowed quantification of the maximum rate of increase of LVP during systole (dP/dtmax). […]
# [6] = End of stabilization period (baseline of the group, before treatment)
# [7] = Post-treatment (pre-ischemic), AS 1 μM, DEA/NO 0.5 μM, NAC 4 mM, 19 min then 10 min wash-out
Structure (SMILES),CPP (coronary perfusion pressure) (Isolated rat hearts [1]; [6]),DP/dtmax (Isolated rat hearts [1]; [6]),Developed LVP (Isolated rat hearts [1]; [6]),LVEDP (left ventricular end-diastolic pressure) (Isolated rat hearts [1]; [6]),CPP (coronary perfusion pressure) (Isolated rat hearts [1]; [7]),DP/dtmax (Isolated rat hearts [1]; [7]),Developed LVP (Isolated rat hearts [1]; [7]),LVEDP (left ventricular end-diastolic pressure) (Isolated rat hearts [1]; [7]),Nitroxyl donation pH (pH at and above which nitroxyl is donated) (Nitroxyl donation pH),LDH release into the coronary venous effluent during reperfusion (Isolated rat hearts [3]),Maximal increment of LVEDP during reperfusion (Isolated rat hearts [4]),also measured
"[Na+].[Na+].[O-][N+]([O-])=NO [AS, sodium trioxodinitrate]",89 mmHg,3145 mmHg/s,99 mmHg,9 mmHg,88 mmHg,3223 mmHg/s,98 mmHg,10 mmHg,about 3,significantly reduced,significantly lower,"Effect on myocardial ischemia/reperfusion injury (anesthetized rabbits): increased myocardial ischemia/reperfusion injury; Effect on neutrophil infiltration into renal tissue (rat renal tissue): contributed to neutrophil infiltration into the tissue; Infarct size reduction compared to controls (Isolated rat hearts [2]; AS 1 μM pre-ischemic, p<0.01 vs controls): 55%; Post-ischemic recovery of developed LVP (Isolated rat hearts [4]; 30 min ischemia, 30 min reperfusion, vs pre-ischemic value, controls 38%, AS 1 μM pre-ischemic, FIG. 3A): about 55%; Post-ischemic recovery of dP/dtmax (Isolated rat hearts [4]; 30 min ischemia, 30 min reperfusion, vs pre-ischemic value, controls 39%, AS 1 μM pre-ischemic, FIG. 3B): 57%"
"CCN(CC)/[N+]([O-])=N/O.CCNCC [DEA/NO, diethylamine diazeniumdiolate]",91 mmHg,3047 mmHg/s,98 mmHg,8 mmHg,90 mmHg,2976 mmHg/s,99 mmHg,9 mmHg,,significantly reduced,significantly lower,"Protective effect: infarct size change vs controls (Isolated rat hearts [2]; DEA/NO 0.5 μM pre-ischemic, p<0.05 vs controls, weaker than AS or IPC): −30%; Recovering contractile function (developed LVP, dP/dtmax) after ischemia/reperfusion (Isolated rat hearts [4]; vs control group, p=0.08 for dP/dtmax, p=0.07 for developed LVP, DEA/NO 0.5 μM): less effective"
"CC(C)N[N+]([O-])=N[O-].[Na+] [IPA/NO, isopropylamine/NO]",,,,,,,,,about 5.5,,,Infarct size reduction as compared to control (Isolated rat hearts [5]): about 36%; Coronary perfusion pressure during reperfusion (isolated rat heart): returned to normal
"CC(=O)N[C@@H](CS)C(=O)O [NAC, N-acetyl-L-cysteine]",88 mmHg,2760 mmHg/s,89 mmHg,8 mmHg,88 mmHg,2481 mmHg/s,86 mmHg,10 mmHg,,,,"Infarcted area, expressed as a percentage of the left ventricle (Isolated rat hearts [2]; 30 min global ischemia, 30 min reperfusion, control 39±2%, FIG. 4): 45+2%"
